Assay [1] deals with T1, Human recombinant MAO-A (Homo sapiens, UniProt P21397).
T1 construct: Full-length human recombinant MAO-A and MAO-B proteins were both expressed in Baculovirus infected Sf 9 cells; FLAG (N); host or cells: Baculovirus-infected Sf9 insect cells
T1 sequence (P21397 1-527): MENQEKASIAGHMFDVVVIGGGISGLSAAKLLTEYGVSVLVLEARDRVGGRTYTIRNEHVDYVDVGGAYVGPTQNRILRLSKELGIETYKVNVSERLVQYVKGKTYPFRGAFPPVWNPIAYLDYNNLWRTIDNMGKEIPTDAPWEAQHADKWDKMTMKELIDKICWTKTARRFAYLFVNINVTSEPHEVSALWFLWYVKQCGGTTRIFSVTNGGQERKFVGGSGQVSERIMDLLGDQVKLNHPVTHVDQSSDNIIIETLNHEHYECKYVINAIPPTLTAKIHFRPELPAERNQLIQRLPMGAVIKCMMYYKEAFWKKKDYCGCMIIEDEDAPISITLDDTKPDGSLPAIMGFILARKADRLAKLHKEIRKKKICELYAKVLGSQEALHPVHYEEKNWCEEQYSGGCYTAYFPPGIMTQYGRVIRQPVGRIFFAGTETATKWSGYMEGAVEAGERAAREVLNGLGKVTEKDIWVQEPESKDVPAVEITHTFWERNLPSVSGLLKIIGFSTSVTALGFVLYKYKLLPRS
In words: Human recombinant MAO-A inhibitory activity assay (Promega MAO-Glo). The conditions noted are these: human recombinant enzyme expressed in Sf 9 cells; substrate tyramine 40 µM; 15 min pre-incubation, 60 min reaction, room temperature; 10 concentrations, duplicate wells. The assay is classed as biochemical. The method, then: (§1) Full-length human recombinant MAO-A and MAO-B proteins were both expressed in Baculovirus infected Sf 9 cells, containing an N-terminal FLAG tag, with a molecular weight of 59.8 kDa. […] A 40 µM substrate was incubated with the MAO protein at room temperature for 1 hour. The product generated by the oxidative deamination reaction between the MAO and the substrate was incubated with a fluorescent luminescent agent for 0.5 hours, and then the activity of the MAO was detected using the Promega MAO-Glo TM detection method.
(§2) Human recombinant monoamine oxidase A/B expressed in Sf 9 cells was used. During the experiment, the recombinant monoamine oxidase A/B was first dissolved in a HEPES buffer (0.8% NaCl, 0.037% KCl, 0.0135% Na2HPO4·2H2O, 0.1% Glucan, 0.5% HEPES, pH 7.0). 10 µL of the monoamine oxidase A/B solution was added to a 384-well plate, followed by the addition of the test compound (final DMSO concentration of 1%) in each well for 10 concentration gradients. […] The plate was incubated at room temperature for 15 minutes. 10 µL of a substrate solution (40 µM, with tyramine and benzylamine as substrates for MAO-A and MAO-B, respectively) was added to each well, followed by incubation at room temperature for 60 minutes. Subsequently, 20 µL of luciferin detection reagent was added to each well, mixed thoroughly, and incubated at room temperature for 20 minutes to generate a stable fluorescent signal. The fluorescent signal was read using a fluorescence microplate reader, and the values were expressed as relative light units (RLU). The experiment was designed with duplicate wells, and the average value was used to calculate the enzyme activity inhibition rate using the following formula: Inh% = (Max-Signal) / (Max-Min)∗100 [formula] • where Max is the value detected at the maximum concentration of the sample, Min is the value detected at the minimum concentration of the sample, and Signal is the value detected at the current concentration of the sample. […] Table 1. Activity Data IC50 (nM)

The target in assay [2] is T2, Human recombinant MAO-B (Homo sapiens, UniProt P27338).
T2 construct: Full-length human recombinant MAO-A and MAO-B proteins were both expressed in Baculovirus infected Sf 9 cells; FLAG (N); host or cells: Baculovirus-infected Sf9 insect cells
T2 sequence (P27338 1-520): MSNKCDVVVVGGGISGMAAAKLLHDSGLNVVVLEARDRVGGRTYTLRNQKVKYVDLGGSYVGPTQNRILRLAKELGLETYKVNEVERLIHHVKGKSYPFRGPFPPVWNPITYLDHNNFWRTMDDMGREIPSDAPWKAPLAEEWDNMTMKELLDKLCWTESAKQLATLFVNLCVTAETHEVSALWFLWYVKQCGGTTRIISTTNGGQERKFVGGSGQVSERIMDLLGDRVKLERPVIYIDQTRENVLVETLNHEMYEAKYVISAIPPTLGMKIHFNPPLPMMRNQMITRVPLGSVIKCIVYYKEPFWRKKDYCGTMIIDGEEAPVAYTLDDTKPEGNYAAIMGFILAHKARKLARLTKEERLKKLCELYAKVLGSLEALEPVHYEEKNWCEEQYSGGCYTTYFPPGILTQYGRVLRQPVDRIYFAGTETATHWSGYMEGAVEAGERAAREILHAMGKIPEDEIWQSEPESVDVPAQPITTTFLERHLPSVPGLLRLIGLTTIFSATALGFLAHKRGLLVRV
Put plainly: Human recombinant MAO-B inhibitory activity assay (Promega MAO-Glo). The assay is classed as biochemical. The conditions noted are these: human recombinant enzyme expressed in Sf 9 cells; substrate benzylamine 40 µM; 15 min pre-incubation, 60 min reaction, room temperature; 10 concentrations, duplicate wells. The protocol:
as §1, §2

Where a name gives a salt, the structure may show the parent alone.

On to `COC(=O)[C@@H]1CC[C@H](c2ccc(-c3ccc(F)cc3)cc2)N1` [Compound 32, hydrochloride], for which the IC50 in assay [1] was greater than 10 µM; in assay [2], 1.99 µM.

In the case of `NC(=O)[C@@H]1CC[C@H](c2ccc(-c3ccc([N+](=O)[O-])cc3)cc2)N1` [Compound 12, hydrochloride], the IC50 in assay [1] came to 6.32 µM; in assay [2] it was 0.796 µM.

As to `CC1C[C@H](c2ccc(-c3ccc(C(F)(F)F)cc3)cc2)N[C@@H]1C(N)=O` (some centres unmarked) [Compound 25, hydrochloride], the IC50 in assay [1] is greater than 10 µM; in assay [2], 1.51 µM.

Turning to `CN(C)C(=O)[C@@H]1CC[C@H](c2ccc(-c3ccc(C(F)(F)F)cc3)cc2)N1` [Compound 28, hydrochloride], the results for the IC50 in assay [1] and in assay [2] were greater than 10 µM and 1 µM, respectively.

With `NC(=O)[C@H]1CC[C@@H](c2ccc(-c3ccc(C(F)(F)F)cc3)cc2)N1` [Compound 8, hydrochloride], the results for the IC50 in assay [1] and in assay [2] were 9.97 µM and 0.562 µM, respectively.

Regarding `NC(=O)[C@@H]1CC[C@H](c2ccc(-c3ccc(C(=O)O)cc3)cc2)N1` [Compound 13, hydrochloride], the IC50 was greater than 10 µM in assay [1] and 1.54 µM in assay [2].

In the case of `N#Cc1cc([C@H]2CC[C@@H](C(N)=O)N2)ccc1-c1ccc(C(F)(F)F)cc1` [Compound 23, hydrochloride], the IC50 is 9.83 µM in assay [1] and 2.53 µM in assay [2].

Regarding `CNC(=O)[C@@H]1CC[C@H](c2ccc(-c3ccc(C(F)(F)F)cc3)cc2)N1` [Compound 27, hydrochloride], the IC50 in assay [1] is greater than 10 µM; in assay [2] it was 7.53 µM.

Turning to `N#Cc1ccc(-c2ccc([C@H]3CC[C@@H](C(N)=O)N3)cc2)cc1` [Compound 11, hydrochloride], the IC50 in assay [1] was 9.36 µM; in assay [2], 1.34 µM.

Regarding `CN1[C@@H](c2ccc(-c3ccc(C(F)(F)F)cc3)cc2)CC[C@H]1C(N)=O` [Compound 26], the half-inhibitory concentration (IC50) was greater than 10 µM in assay [1] and 3.67 µM in assay [2].

Take `NC(=O)[C@@H]1CC[C@H](c2ccc(-c3ccccc3C(F)(F)F)cc2)N1` [Compound 9, hydrochloride]: the IC50 in assay [1] is greater than 10 µM; in assay [2], 0.891 µM.

Turning to `NC(=O)[C@@H]1CC[C@H](c2cc(F)c(-c3ccc(C(F)(F)F)cc3)c(F)c2)N1` [Compound 22, hydrochloride], the IC50 is greater than 10 µM in assay [1] and 0.433 µM in assay [2].

With `NC(=O)[C@@H]1CC[C@@H](c2ccc(-c3ccc(C(F)(F)F)cc3)cc2)N1` [Compound 6, hydrochloride], the IC50 is greater than 10 µM in assay [1] and 0.104 µM in assay [2].

Regarding `NC(=O)[C@@H]1CC[C@H](c2ccc(-c3cccc(F)c3)cc2)N1` [Compound 5, hydrochloride], the IC50 in assay [1] was greater than 10 µM; in assay [2], 3.05 µM.

In the case of `NC(=O)[C@@H]1CC[C@H](c2ccc(-c3ccc(Cl)cc3)cc2)N1` [Compound 10, hydrochloride], the IC50 in assay [1] stood at 83.3 µM; in assay [2], 0.564 µM.

For `N#Cc1cc(-c2ccc(C(F)(F)F)cc2)ccc1[C@H]1CC[C@@H](C(N)=O)N1` [Compound 21, hydrochloride], the results for the IC50 in assay [1] and in assay [2] were greater than 10 µM and 1.36 µM, respectively.

With `NC(=O)[C@H]1CC[C@H](c2ccc(-c3ccc(C(F)(F)F)cc3)cc2)N1` [Compound 7, hydrochloride], the 50% inhibitory concentration (IC50) in assay [1] was greater than 10 µM; in assay [2], 0.147 µM.

In the case of `Cc1ccc(-c2ccc([C@H]3CC[C@@H](C(N)=O)N3)cc2)cc1` [Compound 17, (2S,5R)-5-[4-(4-methylphenyl)phenyl]-1H-pyrrole-2-carboxamide hydrochloride], the IC50 in assay [1] came out at 6.33 µM; in assay [2], 0.71 µM.

On to `COC(=O)c1ccc(-c2ccc([C@H]3CC[C@@H](C(N)=O)N3)cc2)cc1` [Compound 15, hydrochloride], for which the figures for the IC50 in assay [1] and in assay [2] were greater than 10 µM and 0.784 µM, respectively.

As for `NC(=O)[C@@H]1CC[C@H](c2ccc(-c3cccc(C(F)(F)F)c3)cc2)N1` [Compound 4, hydrochloride], the values for the IC50 in assay [1] and in assay [2] were greater than 10 µM and 0.477 µM, respectively.

On to `NC(=O)c1ccc(-c2ccc([C@H]3CC[C@@H](C(N)=O)N3)cc2)cc1` [Compound 14, hydrochloride], for which the IC50 in assay [1] is greater than 10 µM; in assay [2], 0.991 µM.

Turning to `NC(=O)[C@@H]1CC[C@H](c2ccc(-c3ccccc3)cc2)N1` [Compound 16, hydrochloride], the IC50 in assay [1] is greater than 10 µM; in assay [2], 7.53 µM.

As for `NC(=O)[C@@H]1CC[C@H](c2c(F)cc(-c3ccc(C(F)(F)F)cc3)cc2F)N1` [Compound 24, hydrochloride], the IC50 in assay [1] is greater than 10 µM; in assay [2], 0.773 µM.

On to `NC(=O)[C@@H]1CC[C@H](c2ccc(-c3ccc(C(F)(F)F)cc3)cc2)N1` [Compound 1, hydrochloride], for which the IC50 in assay [1] was greater than 10 µM; in assay [2], 0.083 µM.

Consider `COc1cc(-c2ccc(C(F)(F)F)cc2)ccc1[C@H]1CC[C@@H](C(N)=O)N1` [Compound 20, hydrochloride], for which the IC50 in assay [1] is greater than 10 µM; in assay [2], 0.998 µM.

Take `COc1ccc(-c2ccc([C@H]3CC[C@@H](C(N)=O)N3)cc2)cc1` [Compound 18, hydrochloride]: the IC50 in assay [1] came to 9.11 µM; in assay [2] it was 3.57 µM.

On to `Cc1cc(-c2ccc(C(F)(F)F)cc2)ccc1[C@H]1CC[C@@H](C(N)=O)N1` [Compound 19, hydrochloride], for which the IC50 in assay [1] was greater than 10 µM; in assay [2], 0.891 µM.

Take `O=C(O)[C@@H]1CC[C@H](c2ccc(-c3ccc(F)cc3)cc2)N1` [Compound 31, hydrochloride]: the IC50 in assay [1] was greater than 10 µM; in assay [2], 0.533 µM.

`NC(=O)[C@@H]1CC[C@H](c2ccc(-c3ccc(F)cc3)cc2)N1` [Compound 2, hydrochloride]: the IC50 in assay [1] is greater than 10 µM; in assay [2], 1.51 µM.

Turning to `CCN1[C@@H](c2ccc(-c3ccc(C(F)(F)F)cc3)cc2)CC[C@H]1C(N)=O` [Compound 30], the IC50 in assay [1] was greater than 10 µM; in assay [2], 0.562 µM.

As for `NC(=O)[C@@H]1CC[C@H](c2ccc(-c3ccc(OC(F)(F)F)cc3)cc2)N1` [Compound 3, hydrochloride], the results for the IC50 in assay [1] and in assay [2] were greater than 10 µM and 0.199 µM, respectively.

As a reminder, the IC50 is the concentration needed to halve the response being measured.
